Measurements published in ChEMBL document CHEMBL5252522 (Eur J Med Chem, 2016).
pIC50: −log10 of the molar value.

Legend:
Histone deacetylase 2 = Histone deacetylase 2 (Homo sapiens, UniProt Q92769)
Histone deacetylase 1 = Histone deacetylase 1 (Homo sapiens, UniProt Q13547); experiment: Inhibition of HDAC1 (unknown origin)
[1] = molecular target: T1, Protein deacetylase HDAC6 (Homo sapiens, UniProt Q9UBN7); experiment: Inhibition of HDAC6 (unknown origin)
T1 sequence (Q9UBN7 whole entry): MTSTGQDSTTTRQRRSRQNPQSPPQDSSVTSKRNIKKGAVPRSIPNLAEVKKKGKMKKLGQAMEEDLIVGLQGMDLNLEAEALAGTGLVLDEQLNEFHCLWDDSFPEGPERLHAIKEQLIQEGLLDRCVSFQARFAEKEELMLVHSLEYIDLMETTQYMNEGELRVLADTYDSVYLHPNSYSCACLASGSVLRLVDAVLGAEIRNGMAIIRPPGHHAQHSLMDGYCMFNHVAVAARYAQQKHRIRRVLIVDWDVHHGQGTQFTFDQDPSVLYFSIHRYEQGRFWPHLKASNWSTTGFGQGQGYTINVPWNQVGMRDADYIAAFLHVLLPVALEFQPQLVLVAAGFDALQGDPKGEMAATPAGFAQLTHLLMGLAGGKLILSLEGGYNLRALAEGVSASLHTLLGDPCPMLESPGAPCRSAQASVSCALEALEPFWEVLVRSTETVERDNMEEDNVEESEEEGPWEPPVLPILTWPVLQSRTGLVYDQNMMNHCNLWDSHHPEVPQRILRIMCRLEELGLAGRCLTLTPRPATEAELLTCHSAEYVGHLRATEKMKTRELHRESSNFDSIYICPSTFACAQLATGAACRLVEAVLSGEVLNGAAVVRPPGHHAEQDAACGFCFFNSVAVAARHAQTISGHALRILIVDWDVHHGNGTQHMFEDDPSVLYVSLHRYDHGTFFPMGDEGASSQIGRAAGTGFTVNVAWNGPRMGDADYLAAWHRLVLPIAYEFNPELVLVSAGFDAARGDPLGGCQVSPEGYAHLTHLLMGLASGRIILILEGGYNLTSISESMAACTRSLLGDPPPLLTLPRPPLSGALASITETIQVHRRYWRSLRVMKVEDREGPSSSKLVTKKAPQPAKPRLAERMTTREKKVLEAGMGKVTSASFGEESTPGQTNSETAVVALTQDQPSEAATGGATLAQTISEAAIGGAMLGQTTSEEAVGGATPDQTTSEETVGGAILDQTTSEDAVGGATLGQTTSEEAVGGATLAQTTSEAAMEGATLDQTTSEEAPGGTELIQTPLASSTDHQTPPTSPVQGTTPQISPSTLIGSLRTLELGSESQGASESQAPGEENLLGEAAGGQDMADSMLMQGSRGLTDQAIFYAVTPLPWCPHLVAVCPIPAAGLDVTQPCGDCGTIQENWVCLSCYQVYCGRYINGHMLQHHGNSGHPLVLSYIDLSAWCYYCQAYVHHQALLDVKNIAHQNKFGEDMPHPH

Histone deacetylase 3 = Histone deacetylase 3 (Homo sapiens, UniProt O15379); experiment: Inhibition of HDAC3 (unknown origin)
Histone deacetylase = assay type: protein assay, Homo sapiens
Histone deacetylase 8 = molecular target: T2, Histone deacetylase 8 (Homo sapiens, UniProt Q9BY41); experiment: Inhibition of HDAC8 (unknown origin)
T2 sequence (Q9BY41 whole entry): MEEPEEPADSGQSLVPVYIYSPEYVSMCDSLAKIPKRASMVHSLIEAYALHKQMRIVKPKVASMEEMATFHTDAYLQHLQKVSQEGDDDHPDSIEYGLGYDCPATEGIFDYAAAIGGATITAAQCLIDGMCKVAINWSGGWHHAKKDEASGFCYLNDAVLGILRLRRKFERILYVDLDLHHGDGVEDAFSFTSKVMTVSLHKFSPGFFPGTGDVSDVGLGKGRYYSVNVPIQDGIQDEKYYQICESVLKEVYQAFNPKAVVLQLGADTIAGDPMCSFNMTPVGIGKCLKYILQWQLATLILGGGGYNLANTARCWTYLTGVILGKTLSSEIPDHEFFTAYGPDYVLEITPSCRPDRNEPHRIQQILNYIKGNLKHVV

Histone deacetylase 9 = Histone deacetylase 9 (Homo sapiens, UniProt Q9UKV0); experiment: Inhibition of HDAC9 (unknown origin)
Histone deacetylase 11 = molecular target: T3, Histone deacetylase 11 (Homo sapiens, UniProt Q96DB2); experiment: Inhibition of HDAC11 (unknown origin)
T3 sequence (Q96DB2 whole entry): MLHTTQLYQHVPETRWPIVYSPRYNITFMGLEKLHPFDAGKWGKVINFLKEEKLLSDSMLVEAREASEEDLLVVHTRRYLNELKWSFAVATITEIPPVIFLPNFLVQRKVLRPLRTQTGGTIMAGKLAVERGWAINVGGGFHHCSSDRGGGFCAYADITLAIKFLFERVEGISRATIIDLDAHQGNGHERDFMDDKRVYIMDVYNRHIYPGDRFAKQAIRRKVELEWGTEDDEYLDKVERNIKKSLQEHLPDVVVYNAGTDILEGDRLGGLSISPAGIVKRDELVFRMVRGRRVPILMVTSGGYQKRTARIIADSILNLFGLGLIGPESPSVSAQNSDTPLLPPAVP

Histone deacetylase 4 = Histone deacetylase 4 (Homo sapiens, UniProt P56524); experiment: Inhibition of HDAC4 (unknown origin)
Histone deacetylase 5 = Histone deacetylase 5 (Homo sapiens, UniProt Q9UQL6); experiment: Inhibition of HDAC5 (unknown origin)
[2] = molecular target: T4, Polyamine deacetylase HDAC10 (Homo sapiens, UniProt Q969S8); experiment: Inhibition of HDAC10 (unknown origin)
T4 sequence (Q969S8 whole entry): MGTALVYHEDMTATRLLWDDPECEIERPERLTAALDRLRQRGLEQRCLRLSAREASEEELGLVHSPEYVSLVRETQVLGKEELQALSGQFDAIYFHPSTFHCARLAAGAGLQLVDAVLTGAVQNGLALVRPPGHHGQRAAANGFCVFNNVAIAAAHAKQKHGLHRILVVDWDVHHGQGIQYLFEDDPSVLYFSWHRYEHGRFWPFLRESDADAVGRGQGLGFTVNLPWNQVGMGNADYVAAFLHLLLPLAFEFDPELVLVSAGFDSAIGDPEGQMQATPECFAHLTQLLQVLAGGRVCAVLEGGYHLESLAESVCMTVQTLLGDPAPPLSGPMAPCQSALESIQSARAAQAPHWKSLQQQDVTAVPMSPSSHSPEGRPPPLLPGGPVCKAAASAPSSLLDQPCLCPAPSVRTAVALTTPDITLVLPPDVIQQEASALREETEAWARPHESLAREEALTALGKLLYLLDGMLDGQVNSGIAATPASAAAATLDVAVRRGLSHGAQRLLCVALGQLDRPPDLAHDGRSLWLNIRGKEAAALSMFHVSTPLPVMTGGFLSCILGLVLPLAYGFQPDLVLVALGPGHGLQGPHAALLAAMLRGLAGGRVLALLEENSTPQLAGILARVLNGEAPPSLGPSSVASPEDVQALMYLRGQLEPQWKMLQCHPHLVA

Histone deacetylase 7 = molecular target: T5, Histone deacetylase 7 (Homo sapiens, UniProt Q8WUI4); experiment: Inhibition of HDAC7 (unknown origin)
T5 sequence (Q8WUI4 whole entry): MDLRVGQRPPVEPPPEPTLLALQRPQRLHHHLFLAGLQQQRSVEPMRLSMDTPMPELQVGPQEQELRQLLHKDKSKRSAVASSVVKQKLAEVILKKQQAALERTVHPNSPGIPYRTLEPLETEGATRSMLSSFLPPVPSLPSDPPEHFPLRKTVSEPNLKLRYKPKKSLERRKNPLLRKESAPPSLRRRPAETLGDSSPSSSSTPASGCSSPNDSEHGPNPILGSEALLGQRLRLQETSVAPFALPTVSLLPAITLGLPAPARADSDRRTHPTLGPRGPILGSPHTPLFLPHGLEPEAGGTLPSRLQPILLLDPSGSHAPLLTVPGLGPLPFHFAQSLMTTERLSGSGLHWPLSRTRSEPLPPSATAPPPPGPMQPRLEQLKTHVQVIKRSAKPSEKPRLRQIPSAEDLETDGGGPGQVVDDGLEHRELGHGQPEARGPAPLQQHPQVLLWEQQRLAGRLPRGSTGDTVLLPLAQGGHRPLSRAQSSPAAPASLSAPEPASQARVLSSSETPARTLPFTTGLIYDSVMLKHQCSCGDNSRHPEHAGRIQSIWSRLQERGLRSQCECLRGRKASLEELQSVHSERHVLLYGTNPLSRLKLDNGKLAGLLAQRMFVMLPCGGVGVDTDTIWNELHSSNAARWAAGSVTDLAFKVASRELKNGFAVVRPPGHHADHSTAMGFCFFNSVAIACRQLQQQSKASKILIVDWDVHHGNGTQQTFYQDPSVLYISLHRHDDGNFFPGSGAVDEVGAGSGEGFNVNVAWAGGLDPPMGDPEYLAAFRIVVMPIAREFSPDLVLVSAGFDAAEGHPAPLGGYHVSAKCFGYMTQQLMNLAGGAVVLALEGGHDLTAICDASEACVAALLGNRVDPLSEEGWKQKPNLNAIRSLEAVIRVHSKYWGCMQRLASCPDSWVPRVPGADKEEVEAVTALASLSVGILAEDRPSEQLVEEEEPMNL

Sequence of Histone deacetylase 1 (Q13547 whole entry): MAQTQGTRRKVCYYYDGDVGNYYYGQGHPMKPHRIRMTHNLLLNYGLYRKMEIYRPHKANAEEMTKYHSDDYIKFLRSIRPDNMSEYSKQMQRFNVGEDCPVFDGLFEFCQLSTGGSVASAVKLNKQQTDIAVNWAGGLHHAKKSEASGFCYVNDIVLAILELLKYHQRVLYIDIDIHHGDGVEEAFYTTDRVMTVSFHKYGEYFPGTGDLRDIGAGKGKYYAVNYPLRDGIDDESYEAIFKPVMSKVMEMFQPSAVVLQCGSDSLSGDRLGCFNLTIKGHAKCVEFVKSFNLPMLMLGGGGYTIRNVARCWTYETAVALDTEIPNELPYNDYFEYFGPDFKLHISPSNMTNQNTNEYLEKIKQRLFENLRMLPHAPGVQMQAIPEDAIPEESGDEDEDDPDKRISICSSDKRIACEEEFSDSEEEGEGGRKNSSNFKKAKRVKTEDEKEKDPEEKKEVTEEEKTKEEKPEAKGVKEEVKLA
Sequence of Histone deacetylase 5 (Q9UQL6 whole entry): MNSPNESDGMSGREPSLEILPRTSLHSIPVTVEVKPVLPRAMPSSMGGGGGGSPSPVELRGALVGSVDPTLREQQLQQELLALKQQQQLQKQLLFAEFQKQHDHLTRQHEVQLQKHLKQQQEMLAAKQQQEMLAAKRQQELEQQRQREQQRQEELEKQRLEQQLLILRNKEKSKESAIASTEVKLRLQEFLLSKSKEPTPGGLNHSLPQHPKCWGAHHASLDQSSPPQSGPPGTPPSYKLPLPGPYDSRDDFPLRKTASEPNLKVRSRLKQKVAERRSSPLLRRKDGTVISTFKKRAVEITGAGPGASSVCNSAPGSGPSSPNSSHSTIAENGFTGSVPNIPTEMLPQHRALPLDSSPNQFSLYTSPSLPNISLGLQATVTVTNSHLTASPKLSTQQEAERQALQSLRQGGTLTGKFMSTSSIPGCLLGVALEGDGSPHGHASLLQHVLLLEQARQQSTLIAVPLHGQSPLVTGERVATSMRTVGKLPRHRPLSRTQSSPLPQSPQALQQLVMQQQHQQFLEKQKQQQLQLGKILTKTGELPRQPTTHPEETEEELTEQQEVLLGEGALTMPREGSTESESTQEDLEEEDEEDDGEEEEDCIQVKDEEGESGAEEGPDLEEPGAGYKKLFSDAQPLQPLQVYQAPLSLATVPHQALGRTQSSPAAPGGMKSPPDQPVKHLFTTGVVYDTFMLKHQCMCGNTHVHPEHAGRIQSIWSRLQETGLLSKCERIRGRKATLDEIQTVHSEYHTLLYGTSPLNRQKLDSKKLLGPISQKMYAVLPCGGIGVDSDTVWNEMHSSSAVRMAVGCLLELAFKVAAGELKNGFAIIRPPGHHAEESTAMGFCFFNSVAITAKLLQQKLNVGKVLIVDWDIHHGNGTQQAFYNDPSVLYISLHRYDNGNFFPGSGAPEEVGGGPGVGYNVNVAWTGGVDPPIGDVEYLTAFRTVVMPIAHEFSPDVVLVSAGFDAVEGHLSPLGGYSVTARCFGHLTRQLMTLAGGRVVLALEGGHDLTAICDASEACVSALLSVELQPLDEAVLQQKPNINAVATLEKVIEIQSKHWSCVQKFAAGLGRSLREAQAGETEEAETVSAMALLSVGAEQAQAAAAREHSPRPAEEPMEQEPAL
Sequence of Histone deacetylase 3 (O15379 whole entry): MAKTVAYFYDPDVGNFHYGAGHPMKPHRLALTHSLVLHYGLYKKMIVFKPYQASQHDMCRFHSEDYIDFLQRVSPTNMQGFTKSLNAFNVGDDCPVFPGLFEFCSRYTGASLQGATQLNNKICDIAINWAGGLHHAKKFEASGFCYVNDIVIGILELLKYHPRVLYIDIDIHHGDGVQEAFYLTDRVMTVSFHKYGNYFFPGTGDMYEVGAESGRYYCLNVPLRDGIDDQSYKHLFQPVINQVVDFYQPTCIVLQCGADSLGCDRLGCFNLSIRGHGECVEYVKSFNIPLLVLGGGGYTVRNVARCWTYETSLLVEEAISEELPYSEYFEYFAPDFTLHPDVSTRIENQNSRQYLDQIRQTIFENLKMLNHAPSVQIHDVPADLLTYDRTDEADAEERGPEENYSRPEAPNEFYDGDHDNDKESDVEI
Sequence of Histone deacetylase 9 (Q9UKV0 whole entry): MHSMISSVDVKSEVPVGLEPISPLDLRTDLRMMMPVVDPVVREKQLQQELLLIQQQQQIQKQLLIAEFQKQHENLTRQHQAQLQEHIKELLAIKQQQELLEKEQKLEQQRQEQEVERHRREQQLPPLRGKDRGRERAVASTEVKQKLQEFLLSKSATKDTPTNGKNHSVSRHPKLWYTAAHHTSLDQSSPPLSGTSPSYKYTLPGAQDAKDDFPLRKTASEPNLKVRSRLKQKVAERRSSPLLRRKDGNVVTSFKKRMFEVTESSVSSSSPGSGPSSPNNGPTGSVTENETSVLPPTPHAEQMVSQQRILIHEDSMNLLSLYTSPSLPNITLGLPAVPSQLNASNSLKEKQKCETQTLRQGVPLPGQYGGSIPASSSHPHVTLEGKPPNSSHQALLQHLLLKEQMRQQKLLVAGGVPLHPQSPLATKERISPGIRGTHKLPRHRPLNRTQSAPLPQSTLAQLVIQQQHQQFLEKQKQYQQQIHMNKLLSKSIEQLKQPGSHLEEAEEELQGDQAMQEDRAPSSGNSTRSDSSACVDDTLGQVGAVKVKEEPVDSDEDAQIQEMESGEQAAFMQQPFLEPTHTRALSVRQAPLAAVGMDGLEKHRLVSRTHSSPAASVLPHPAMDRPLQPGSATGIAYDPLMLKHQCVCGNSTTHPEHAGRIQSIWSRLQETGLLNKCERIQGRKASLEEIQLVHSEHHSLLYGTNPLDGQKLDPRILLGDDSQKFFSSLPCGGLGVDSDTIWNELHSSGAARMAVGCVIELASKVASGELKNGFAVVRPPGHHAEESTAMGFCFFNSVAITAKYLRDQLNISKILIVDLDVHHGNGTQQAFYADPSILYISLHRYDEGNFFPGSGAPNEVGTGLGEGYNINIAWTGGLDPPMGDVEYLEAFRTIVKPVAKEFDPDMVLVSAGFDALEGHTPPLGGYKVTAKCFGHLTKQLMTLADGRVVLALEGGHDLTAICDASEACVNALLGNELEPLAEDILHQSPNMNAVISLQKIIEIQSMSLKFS
Sequence of Histone deacetylase 2 (Q92769 whole entry): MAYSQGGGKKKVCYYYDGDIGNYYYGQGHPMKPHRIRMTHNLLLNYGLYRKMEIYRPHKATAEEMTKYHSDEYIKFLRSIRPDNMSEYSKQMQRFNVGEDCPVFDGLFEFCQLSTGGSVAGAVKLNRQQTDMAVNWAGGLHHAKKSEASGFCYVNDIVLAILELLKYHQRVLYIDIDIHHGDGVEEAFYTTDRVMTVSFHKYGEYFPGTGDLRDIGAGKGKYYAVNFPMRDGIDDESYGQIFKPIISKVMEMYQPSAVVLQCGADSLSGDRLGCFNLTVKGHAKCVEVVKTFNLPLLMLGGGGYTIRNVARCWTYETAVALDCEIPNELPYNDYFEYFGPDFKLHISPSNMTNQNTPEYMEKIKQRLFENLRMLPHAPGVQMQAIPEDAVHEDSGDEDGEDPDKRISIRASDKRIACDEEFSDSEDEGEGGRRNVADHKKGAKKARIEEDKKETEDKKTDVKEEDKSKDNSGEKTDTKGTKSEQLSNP
Sequence of Histone deacetylase 4 (P56524 whole entry): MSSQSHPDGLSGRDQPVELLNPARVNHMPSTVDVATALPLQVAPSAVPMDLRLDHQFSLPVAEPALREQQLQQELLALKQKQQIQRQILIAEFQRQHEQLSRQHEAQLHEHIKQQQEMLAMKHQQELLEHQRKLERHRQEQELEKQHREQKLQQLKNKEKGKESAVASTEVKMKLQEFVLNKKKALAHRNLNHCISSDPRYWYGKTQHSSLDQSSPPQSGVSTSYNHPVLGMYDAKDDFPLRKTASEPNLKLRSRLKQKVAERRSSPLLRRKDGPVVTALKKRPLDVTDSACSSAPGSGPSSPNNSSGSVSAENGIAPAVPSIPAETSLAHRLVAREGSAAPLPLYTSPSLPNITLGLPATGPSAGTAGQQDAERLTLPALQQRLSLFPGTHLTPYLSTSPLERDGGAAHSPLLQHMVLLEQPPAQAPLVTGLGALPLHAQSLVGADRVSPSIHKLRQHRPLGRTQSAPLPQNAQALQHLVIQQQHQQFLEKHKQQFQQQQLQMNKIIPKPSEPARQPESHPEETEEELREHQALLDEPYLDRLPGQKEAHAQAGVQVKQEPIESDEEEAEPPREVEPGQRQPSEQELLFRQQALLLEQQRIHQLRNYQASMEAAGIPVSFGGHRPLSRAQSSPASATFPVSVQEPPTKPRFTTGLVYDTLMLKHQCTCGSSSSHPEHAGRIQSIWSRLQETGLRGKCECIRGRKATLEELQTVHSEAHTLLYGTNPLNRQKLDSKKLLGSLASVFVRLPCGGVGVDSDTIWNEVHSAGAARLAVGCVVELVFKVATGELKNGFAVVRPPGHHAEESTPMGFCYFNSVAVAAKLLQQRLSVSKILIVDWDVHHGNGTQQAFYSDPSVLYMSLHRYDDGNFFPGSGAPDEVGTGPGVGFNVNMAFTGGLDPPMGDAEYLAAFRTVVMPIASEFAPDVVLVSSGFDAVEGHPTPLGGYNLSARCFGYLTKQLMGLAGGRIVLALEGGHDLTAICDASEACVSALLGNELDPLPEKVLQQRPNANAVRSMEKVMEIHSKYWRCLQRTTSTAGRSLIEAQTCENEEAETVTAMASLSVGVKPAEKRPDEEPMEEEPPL

SMILES | pIC50 (Histone deacetylase 2) | pIC50 (Histone deacetylase 1) | pIC50 [1] | pIC50 (Histone deacetylase 3) | pIC50 (Histone deacetylase 8) | other results
OC1(c2ccccc2)C=C(c2ccccc2)CO1 (stereo not drawn) | 6.77 | 5.56 | – | – | – | –
O=C(/C=C/c1cccc(Nc2ncnc3cc4c(cc23)OCCO4)c1)NO | – | 6.54 | 6.25 | 6.30 | – | –
CC(C)Cc1c(OCCOc2cccc(/C=C/C(=O)NO)c2)ccc2c1OC(=O)CC2 | – | 7.18 | 8.22 | – | – | –
CCc1nnc(NS(=O)(=O)c2ccc(N/C=C3\Sc4ccccc4C3=O)cc2)s1 | – | – | – | – | – | IC50 (Histone deacetylase): 4200 nM
CC1(C)C(=O)N(c2ccc(C#N)c(C(F)(F)F)c2)C(=O)N1Cc1ccc(-c2cn(CCCCCCC(=O)NO)nn2)cc1 | – | – | – | – | – | IC50 (Histone deacetylase): 690 nM
CC[N+]1=C(/C=C/C=C/C=C2/N(CCCCC(=O)N(CCc3c(C)[nH]c4ccccc34)Cc3ccc(/C=C/C(=O)NO)cc3)c3ccc4c(S(=O)(=O)O)cc(S(=O)(=O)O)cc4c3C2(C)C)C(C)(C)c2c1ccc1c(S(=O)(=O)[O-])cc(S(=O)(=O)O)cc21 | – | – | – | – | – | IC50 (Histone deacetylase): 9.6 nM
O=C(CCCCCn1cc(-c2ccc(C(=O)c3c(-c4ccc(O)cc4)sc4cc(O)ccc34)cc2)nn1)NO | 5.74 | 5.99 | – | 6.13 | 4.52 | –
O=C(CCc1ccc(Oc2cccs2)c(O)c1)Nc1ccc(C(=O)NO)cc1 | – | 7.62 | – | – | 6.82 | –
O=C(NO)c1ccc(CC(=O)N(CCO)c2ccccc2)cc1 | – | 5.54 | – | 5.77 | 5.55 | pIC50 (Histone deacetylase 9): < 5.00; pIC50 (Histone deacetylase 11): < 5.00; pIC50 (Histone deacetylase 4): < 5.00; pIC50 (Histone deacetylase 5): < 5.00; pIC50 [2]: 5.52; pIC50 (Histone deacetylase 7): < 5.00
CN(CCc1ccccc1)S(=O)(=O)c1cccc(/C=C/C(=O)NO)c1 | 9.70 | 8.30 | 8.30 | 8.47 | 6.82 | pIC50 (Histone deacetylase 9): 4.77; pIC50 (Histone deacetylase 4): 6.30; pIC50 (Histone deacetylase 5): 4.97
CCc1nnc(NS(=O)(=O)c2ccc(Nc3nc(C)c(C(=O)Nc4ccccc4)s3)cc2)s1 | – | – | – | – | – | IC50 (Histone deacetylase): 32000 nM
[11CH3]n1cc(CCNCc2ccc(/C=C/C(=O)NO)cc2)c2ccccc21 | 8.92 | 9.70 | 8.80 | 9.40 | 5.98 | pIC50 (Histone deacetylase 9): 5.31; pIC50 (Histone deacetylase 4): 6.18; pIC50 (Histone deacetylase 5): 7.00; pIC50 (Histone deacetylase 7): 5.69
O=C(CCCCCCNC(=O)c1c(-c2ccc(O)cc2)sc2cc(O)ccc12)NO | 6.18 | 6.77 | – | 6.89 | 6.40 | –
CN(C)Cc1ccc(C(=O)Nc2cc(-c3ccccc3)ccc2N)cc1 | 7.70 | 8.00 | – | 5.28 | – | –
COc1cc2c(Nc3cccc(/C=C/C(=O)NO)c3)ncnc2cc1OCCCN1CCOCC1 | – | 6.80 | 6.25 | 6.74 | – | –
